According to patent publication EP0558569B1, “MEDICAMENTS CONTAINING SULPHONAMIDES, NOVEL SULPHONAMIDES AND PROCES FOR PRODUCING THEM” (BOEHRINGER MANNHEIM GMBH, priority 1990, dated 1992):

Key:
Plasma-LDL = assay: Stabilisation of plasma LDL against Cu(II) oxidation: prolongation of the lag phase of diene formation (A 234); format: biochemical, human; settings: 3 Moleküle Testsubstanz pro LDL-Partikel; LDL 125 »g Protein/ml, 10 »M CuCl₂, pH 8, 42° C
Description: (§1) e) In-vitro-Wirkung der Verbindungen der Formel I und I' Hemmung der Cholesterinesterbildung in Makrophagen (nach Huber et al. (1990) Free Rad. Res. Comms. 8, 167-173): Humanplasma-LDL wurde durch sequenzielle Ultrazentrifugation bei präselektierten Dichten aus dem Plasma gesunder männlicher Nichtraucher isoliert und für 5 h bei 37° C in F-10 Medium + 1 »M Cu(II) zur Depletion seiner lipophilen Antioxidantien inkubiert. Die Bildung von Cholesterinestern in P 388 D.1 Makrophagen unter Einfluß von konditioniertem human Plasma-LDL wurde nach 18 h Inkubation der Zellen (2 x 10⁶/ml) in F-10 Medium + 1 » M Cu(II) + 50 »g/ml LDL + 5 % FCS nach Extraktion der Neutralfette dünnschichtchromatographisch gemessen. […] Stabilisierung von Plasma-LDL (nach Huber et al. (1990) Free Rad. Res. Comms. 8, 167-173): LDL (125 »g Protein/ml) wurde in 20 mM Tris-Cl pH 8, 150 mM NaCl, 10 »M CuCl₂ mit und ohne Testverbindung (gelöst in Äthanol, Äthanolendkonzentration 0,5 %) bei 42° C oxidiert. Es wurden jeweils 3 Moleküle Testsubstanz pro LDL-Partikel eingesetzt. Die Oxidation wurde kontinuierlich photometrisch bei A 234 durch die Messung der Dienbildung verfolgt. Die sogenannte "lag Phase" ist als dasjenige Zeitintervall definiert, das sich aus dem Schnittpunkt der Tangente der Kurve während der Propagationsreaktion der Lipidperoxidation und er Zeitachse ergibt. […] Hemmung der Sojabohnenlipoxygenase (15-Lipoxygenase) am LDL-Substrat (nach Cathcart et al. (1991) J. Lipid Res. 32, 63-70): LDL (100 »g Protein/ml) wurde in 20 mM Tris-Cl pH 8,3, 150 mM NaCl mit und ohne Testsubstanz (gelöst in Äthanol, Endkonzentration des Äthanol 0,5 %) mit 5000 U/2ml Sojabohnen-Lipoxygenase (Sigma, München) bei 37° C inkubiert: Die Oxidation wurde durch Messung der Diene kontinuierlich bei A 234 verfolgt. Als IC₅₀-Wert wird diejenige Konzentration der Testverbindung angegeben, die zur Halbierung der im Testansatz über die Zeit linearen Dienbildung führt.

P 388 D.1 Makrophagen = assay: Inhibition of cholesterol ester formation in macrophages under conditioned human plasma LDL (after Huber et al. 1990); format: cell-based; settings: for inhibition at 10 µM / IC50: Mus musculus, P388D1, 18 h; for inhibition at 10 µM: read-out: Hemmung der Cholesterinesterbildung in Macrophagen (P388D.1) 10 »M %; for IC50: read-out: Hemmung der Cholesterinesterbildung in Macrophagen (P388D.1) IC₅₀
Description: as §1

[1] = test system: Ratten mit diätetisch induzierter Hypercholesterinämie; assay: Dose-dependent effect on serum cholesterol in rats with diet-induced hypercholesterolaemia; format: in vivo, SD Ratten; settings: for S-Cholesterin: 4 days on 2 % Cholesterin/0,2 % Cholsäure diet, measured day 5, Mittelwerte +/- SEM, n=6; for % Kontrollen: S-Cholesterin as % of controls (dose 0 = 100)
Description: Die Verbindungen der Formel I bzw. I' sind Antioxidantien-Sulfonamidanaloga, die Hemmstoffe der Cholesterinesterbildung in der Arterienwand zur Behandlung der Arteriosklerose darstellen. a) Die Zytogenese der Atheromatose Hypercholesterinämie und Syndrome von Hypercholesterinämie/Hypertriglyceridämie Syndrome sind Risikofaktoren für die vorzeitige Arteriosklerose. In der Pathogenese der arteriosklerotischen Läsion selbst spielt die oxidative Modifikation von Lipoproteinen in der Arterienwand eine wichtige Rolle. Sie führt zur Freisetzung von chemotaktisch wirksamen Mediatoren und zur Wanderung von makrophagozytären Zellen aus dem Blut in die Arterienwand. In der Gefäßwand nehmen Makrophagen besonders intensiv oxidativ verändertes low-density lipoprotein (LDL) unreguliert auf. Die damit verbundene Erhöhung des Cholesterininfluxes und die Belastung des zellulären Stoffwechsels führt zu einem Anstieg des intrazellulären Cholesterins, einer Steigerung der Reacylierung des Cholesterins und Speicherung der Cholesterinester, die wiederum zur Ausbildung großer cytoplasmatischer Cholesterinesterdepots und zur Degeneration dieser Makrophagen ("Schaumzellen") führen. Die Schaumzellen sind das zelluläre Substrat des Atheroms und verursachen die makroskopisch sichtbaren Fettstreifen, aus denen sich dann die fibrösen Plaqueläsionen bei Fortschreiben der Erkrankung entwickeln. b) Die Grundlagen für eine antiatherosklerotische Therapie bei Fettstoffwechselstörungen Eine an die Kausalzusammenhänge orientierte antiatherosklerotische Therapie fußt idealerweise auf mindestens drei Säulen: 1. einer Senkung pathologisch erhöhter Lipidspiegel im Plasma durch Diät und/oder Pharmaka, 2. einem wirksamen Antioxidantienschutz besonders des stark atherogenen LDL zur Verminderung des oxidativen LDL-Katabolismus im Atherom und 3. einer Hemmung der Cholesterinesterbildung in den Schaumzellen der fettstreifigen Frühläsionen. Einige Senker des Serum-Cholesterins wirken, indem sie den hepatischen Pool des freien Cholesterins kontrahieren und den Katabolismus des atherogenen LDL-Cholesterins erhöhen: Ionenaustauscher interferieren z. B. mit dem enterhepatischen Cholesterinkreislauf, führen zur Depletion der Gallensäuren in den Hepatozyten und stimulieren die LDL-Cholesterinaufnahme aus dem Plasmakompartment durch eine vermehrte hepatische Aufnahme von Cholesterin über LDL und die hepatischen Apo B,E-Rezeptoren (LDL-Rezeptoren). Ähnlich wirken die Cholesterinsynthese-blocker, z. B. Lovastatin. Sie vermindern das hepatische Cholesterin und bedingen ebenfalls eine gesteigerte Aufnahme von LDL-Cholesterin aus dem Plasma über eine Vermehrung der LDL-Rezeptoren. Auch Hemmer der Cholesterinresorption bedingen eine Absenkung des hepatischen Cholesterinpools, indem sie die exogene diätetische Belastung durch Cholesterin reduzieren. Beispiele hierfür sind die sogenannten Acyl CoA: cholesterinacyltransferase (ACAT)-Hemmer, die in den Enterozyten den Cholesterinefflux via Chylomikronen durch die Hemmung der Veresterung freien Cholesterins unterbinden. In der Leber wird durch diese Hemmer der Cholesterinesterbildung zusätzlich das freie Cholesterin erhöht und die endogene hepatische Cholesterinbiosynthese durch Endprodukt-Hemmung indirekt gehemmt. In den Schaumzellen des Atheroms wird durch die Blockade der Cholesterinesterbildung erhöht freies Cholesterin in den "Reverse Cholesterol Transport pathway" der high-density lipoproteins (HDL) eingebracht, daraus entsteht ein zusätzlicher direkter antiatherogener Effekt. Antioxidantien sind Substanzen, die - allgemein gesehen - eine erhebliche Verzögerung der oxidativen Vorgänge bei einem zu schützenden Produkt bewirken. […] Es ist ein sterisch gehindertes Alkylphenol, das im LDL akkumuliert. […] Methode: 220-250 g schwere SD Ratten erhielten eine Standarddiät, die mit 2 % Cholesterin/0,2 % Cholsäure angereichert wurde, über 4 Tage. […]

Row | Structure (SMILES) | Stabilisierung von Plasma LDL: Verlängerung d. "lag-Phase" % (Plasma-LDL) | inhibition at 10 µM (P 388 D.1 Makrophagen) | IC50 (P 388 D.1 Makrophagen) | other results
1 | CC(C)(C)c1cc(CNS(=O)(=O)c2ccc(Cl)cc2)cc(C(C)(C)C)c1O [Beispiel 2, 4-Chlorbenzolsulfo-(3,5-di-tert.butyl-4-hydroxy)benzylamid] | 44% | 78.7% | 2500 nM | –
2 | CN(Cc1cc(C(C)(C)C)c(O)c(C(C)(C)C)c1)S(=O)(=O)c1ccc(Cl)cc1 [Beispiel 3, N-Methyl-4-chlorbenzolsulfo-(3,5-di-tert.butyl-4-hydroxy)benzylamid] | 40% | 54.9% | – | –
3 | CC(C)(C)c1cc(CCCNS(=O)(=O)c2ccc(Cl)cc2)cc(C(C)(C)C)c1O [Beispiel 4b] | – | 49.2% | – | –
4 | CC(C)c1cc(C(C)C)c(S(=O)(=O)NCc2cc(C(C)(C)C)c(O)c(C(C)(C)C)c2)c(C(C)C)c1 [Beispiel 5.10, 2,4,6-tris-Isopropyl-benzolsulfo-(3,5-di-tert.butyl-4-hydroxy)benzylamid] | 99% | 60.3% | 7000 nM | –
5 | CC(C)c1cc(C(C)C)c(S(=O)(=O)NCCc2cc(C(C)(C)C)c(O)c(C(C)(C)C)c2)c(C(C)C)c1 [Beispiel 5.17] | 50% | 78% | – | –
6 | CCCCS(=O)(=O)NCCCc1cc(C(C)(C)C)c(O)c(C(C)(C)C)c1 [Beispiel 5.19] | – | 43.8% | – | –
7 | CC(C)(C)c1cc(CCNS(=O)(=O)c2ccc(F)cc2)cc(C(C)(C)C)c1O [Beispiel 5.28, 2-[4-Fluorbenzolsulfo-(3,5-di-tert.butyl-4-hydroxy)]-phenethylamid] | 25% | 92.6% | 1200 nM | S-Cholesterin ([1]; 5 mg/kg/d by gavage in 2 ml Pflanzenöl): 187 +/- 23 mg %; S-Cholesterin ([1]; 15 mg/kg/d by gavage in 2 ml Pflanzenöl): 120 +/- 15 mg %; S-Cholesterin ([1]; 50 mg/kg/d by gavage in 2 ml Pflanzenöl): 114 +/- 14 mg %; S-Cholesterin ([1]; 100 mg/kg/d by gavage in 2 ml Pflanzenöl): 84 +/- 8 mg %; % Kontrollen ([1]; 5 mg/kg/d): 75%; % Kontrollen ([1]; 15 mg/kg/d): 48%; % Kontrollen ([1]; 50 mg/kg/d): 46%; % Kontrollen ([1]; 100 mg/kg/d): 33%
8 | CC(Cc1cc(C(C)(C)C)c(O)c(C(C)(C)C)c1)NS(=O)(=O)C(C)C (stereo not drawn) [Beispiel 5.31] | 18% | 33.9% | – | –
9 | CC(C)(Sc1cc(C(C)(C)C)c(O)c(C(C)(C)C)c1)Sc1cc(C(C)(C)C)c(O)c(C(C)(C)C)c1 [Probucol, reference compound] | 10% | – | – | Hemmung der Cholesterbildung (P 388 D.1 Makrophagen; reference substance at 10 »M, n=7, printed as positive inhibition): 25-42%
